This is an account of results in ChEMBL document CHEMBL3108760, “Epigallocatechin 3-O-gallate induces 67 kDa laminin receptor-mediated cell death accompanied by downregulation of ErbB proteins and altered lipid raft clustering in mammary and epidermoid carcinoma cells” (J Nat Prod, 2014).

SMILES strings stand for the structures. Calls of active or inactive are those of the source. No cut-off for these calls is given here.

For assay [1], the system named is A-431. Nature of the assay: Antiproliferative activity against anti-67LR treated human A431 cells overexpressing ErbB assessed as cell viability at 100 to 200 uM after 24 hrs by WST-1 staining-based spectrophotometric analysis. It is filed as functional.
The nature of assay [2]: Cell cycle arrest in human SKBR3 cells at 50 to 75 uM after 36 hrs by propidium iodide staining-based flow cytometric analysis. The following applies: SK-BR-3. It is filed as functional.
Assay [3] concerns SK-BR-3. The assay can be described thus: Ratio of EC50 for human SKBR3 cells overexpressing ErbB in complete medium to EC50 for human SKBR3 cells overexpressing ErbB in serum-free medium. It is filed as functional.
Assay [4] addresses Receptor tyrosine-protein kinase erbB-2 (Homo sapiens) (UniProt P04626). The assay can be described thus: Induction of ErbB2 internalization in lysosome/endosome of human SKBR3 cells in serum free medium at 200 uM after 30 mins by immunofluorescence staining-based confocal microscopic analysis. It is filed as cell-based. The following applies: SK-BR-3.
Assay [5] deals with A-431. Nature of the assay: Downregulation of ErbB1 protein expression in human A431 cells in serum free medium at 200 uM after 30 mins by immunofluorescence staining-based confocal microscopic analysis. The format is functional, cell-based.
Assay [6] relates to A-431. The assay can be described thus: Reduction of clustering of GFP-GPI in lipid rafts of human A431 cells at 100 uM after 12 hrs by confocal microscopic analysis. The format is functional, cell-based.
Assay [7] concerns A-431. Nature of the assay: Cell cycle arrest in human A431 cells at 50 to 75 uM after 36 hrs by propidium iodide staining-based flow cytometric analysis. It is filed as functional.
The nature of assay [8]: Antiproliferative activity against human SKBR3 cells overexpressing ErbB in complete medium assessed as cell viability after 48 hrs by WST-1 assay. The format is functional, cell-based. Conditions: SK-BR-3, 48 h.
A short description of assay [9]: Downregulation of ErbB2 protein expression in human SKBR3 cells in serum free medium at 50 uM after 24 hrs by immunofluorescence staining-based flow cytometric analysis. The format is functional, cell-based. The following applies: SK-BR-3.
Assay [10] in a line: Antiproliferative activity against human SKBR3 cells overexpressing ErbB in serum-free medium assessed as cell viability after 48 hrs by WST-1 assay. The following applies: SK-BR-3, 48 h. The format is functional, cell-based.
Assay [11] deals with SK-BR-3. The assay can be described thus: Reduction of clustering of GFP-GPI in lipid rafts of human SKBR3 cells at 100 uM after 12 hrs by confocal microscopic analysis. The format is functional, cell-based.
Assay [12] concerns A-431. The assay can be described thus: Downregulation of ErbB1 protein expression in human A431 cells at 50 uM after 24 hrs by immunofluorescence staining-based flow cytometric analysis in presence of serum. It is filed as functional, cell-based.
Assay [13] deals with SK-BR-3. The assay can be described thus: Induction of apoptosis in human SKBR3 cells overexpressing ErbB in complete medium assessed as late apoptotic/necrotic cells at 75 uM after 72 hrs by annexin V-FITC/7-AAD staining-based flow cytometric analysis relative to control. It is filed as functional.
In assay [14] the target is Small ribosomal subunit protein uS2 (Homo sapiens) (UniProt P08865). The assay can be described thus: Inhibition of 67LR co-localization in lipid rafts containing cholera toxin labeled GM1 gangliosides in human A431 cells after 30 mins by immunofluorescence-based confocal microscopic analysis (reference value: 75%). It is filed as cell-based. The following applies: A-431.

For assay [15], the system named is A-431. The assay can be described thus: Downregulation of ErbB1 protein expression in human A431 cells in serum free medium at 50 uM after 24 hrs by immunofluorescence staining-based flow cytometric analysis. It is filed as functional.
In assay [16] the target is Receptor tyrosine-protein kinase erbB-2 (Homo sapiens) (UniProt P04626). Nature of the assay: Induction of ErbB2 internalization in lysosome/endosome of human A431 cells in serum free medium at 200 uM after 30 mins by immunofluorescence staining-based confocal microscopic analysis. It is filed as cell-based. The following applies: A-431.
The subject of assay [17] is A-431. The assay can be described thus: Ratio of EC50 for human A431 cells overexpressing ErbB in complete medium to EC50 for human A431 cells overexpressing ErbB in serum-free medium. It is filed as functional.
Assay [18] in a line: Downregulation of ErbB2 protein expression in human SKBR3 cells at 50 uM after 24 hrs by immunofluorescence staining-based flow cytometric analysis in presence of serum. The format is functional, cell-based. The following applies: SK-BR-3.
In assay [19] the test system is A-431. Nature of the assay: Antiproliferative activity against human A431 cells overexpressing ErbB in complete medium assessed as cell viability after 48 hrs by WST-1 assay. It is filed as functional, cell-based. The following applies: A-431, 48 h.
For assay [20], the system named is A-431. Nature of the assay: Induction of apoptosis in human A431 cells overexpressing ErbB in complete medium assessed as late apoptotic/necrotic cells at 75 uM after 72 hrs by annexin V-FITC/7-AAD staining-based flow cytometric analysis relative to control. It is filed as functional.
In assay [21] the test system is A-431. The assay can be described thus: Antiproliferative activity against human A431 cells overexpressing ErbB in serum-free medium assessed as cell viability after 48 hrs by WST-1 assay. The format is functional, cell-based. The following applies: A-431, 48 h.
The nature of assay [22]: Downregulation of ErbB2 protein expression in human SKBR3 cells in serum free medium at 200 uM after 30 mins by immunofluorescence staining-based confocal microscopic analysis. The format is functional, cell-based. Conditions: SK-BR-3.
The nature of assay [23]: Cell cycle arrest in human SKBR3 cells assessed as accumulation at G2/M phase at 50 to 75 uM after 36 hrs by propidium iodide staining-based flow cytometric analysis relative to control. It is filed as functional. The following applies: SK-BR-3.
Assay [24] relates to A-431. Nature of the assay: Induction of apoptosis in human A431 cells overexpressing ErbB in complete medium assessed as late apoptotic/necrotic cells at 50 to 75 uM after 72 hrs by annexin V-FITC/7-AAD staining-based flow cytometric analysis. It is filed as functional, cell-based.
Assay [25] is described as follows: Cell cycle arrest in human SKBR3 cells assessed as decrease in accumulation at G0/G1 phase at 50 to 75 uM after 36 hrs by propidium iodide staining-based flow cytometric analysis. The following applies: SK-BR-3. The format is functional.
Assay [26] concerns A-431. Nature of the assay: Cell cycle arrest in human A431 cells assessed as accumulation at G2/M phase at 50 to 75 uM after 36 hrs by propidium iodide staining-based flow cytometric analysis relative to control. The format is functional.
Assay [27] has as its system A-431. The assay can be described thus: Cell cycle arrest in human A431 cells assessed as decrease in accumulation at G0/G1 phase at 50 to 75 uM after 36 hrs by propidium iodide staining-based flow cytometric analysis. The format is functional.
The test system of assay [28] is SK-BR-3. Nature of the assay: Induction of apoptosis in human SKBR3 cells overexpressing ErbB in complete medium assessed as late apoptotic/necrotic cells at 50 to 75 uM after 72 hrs by annexin V-FITC/7-AAD staining-based flow cytometric analysis. The format is functional, cell-based.

Chain of Receptor tyrosine-protein kinase erbB-2 (Homo sapiens) (P04626 whole entry): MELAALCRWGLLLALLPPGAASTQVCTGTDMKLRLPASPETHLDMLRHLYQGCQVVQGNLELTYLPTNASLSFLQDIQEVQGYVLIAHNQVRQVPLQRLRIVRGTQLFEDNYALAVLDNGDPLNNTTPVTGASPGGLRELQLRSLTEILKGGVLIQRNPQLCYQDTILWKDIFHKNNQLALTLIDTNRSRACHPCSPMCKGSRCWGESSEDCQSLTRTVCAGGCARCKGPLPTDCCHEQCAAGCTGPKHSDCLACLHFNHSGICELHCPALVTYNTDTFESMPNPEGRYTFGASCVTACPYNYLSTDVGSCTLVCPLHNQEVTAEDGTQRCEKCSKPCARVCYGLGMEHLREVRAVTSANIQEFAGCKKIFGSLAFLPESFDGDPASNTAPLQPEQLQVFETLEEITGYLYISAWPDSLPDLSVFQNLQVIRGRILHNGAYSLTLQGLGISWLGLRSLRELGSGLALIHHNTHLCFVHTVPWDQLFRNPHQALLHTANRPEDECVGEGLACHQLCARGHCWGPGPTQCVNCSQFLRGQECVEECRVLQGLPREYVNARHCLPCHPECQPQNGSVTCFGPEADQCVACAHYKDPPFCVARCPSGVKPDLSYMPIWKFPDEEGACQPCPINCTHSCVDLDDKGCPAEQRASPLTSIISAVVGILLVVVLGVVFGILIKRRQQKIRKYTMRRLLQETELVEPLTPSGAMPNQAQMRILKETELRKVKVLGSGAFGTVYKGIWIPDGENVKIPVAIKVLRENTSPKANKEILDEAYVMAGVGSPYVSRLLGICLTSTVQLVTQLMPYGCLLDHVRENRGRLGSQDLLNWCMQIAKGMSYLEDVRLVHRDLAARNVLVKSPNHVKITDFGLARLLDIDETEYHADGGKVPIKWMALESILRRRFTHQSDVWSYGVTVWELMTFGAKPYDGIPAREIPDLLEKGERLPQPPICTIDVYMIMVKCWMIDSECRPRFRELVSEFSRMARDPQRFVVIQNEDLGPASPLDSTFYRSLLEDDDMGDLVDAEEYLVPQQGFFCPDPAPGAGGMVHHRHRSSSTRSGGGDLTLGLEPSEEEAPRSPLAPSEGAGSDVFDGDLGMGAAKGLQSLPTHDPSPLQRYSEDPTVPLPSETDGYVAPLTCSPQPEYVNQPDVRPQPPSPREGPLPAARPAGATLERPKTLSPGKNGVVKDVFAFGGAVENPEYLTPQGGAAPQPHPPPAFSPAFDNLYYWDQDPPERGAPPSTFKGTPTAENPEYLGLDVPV

For the compound `O=C(O[C@@H]1Cc2c(O)cc(O)cc2O[C@@H]1c1cc(O)c(O)c(O)c1)c1cc(O)c(O)c(O)c1` [EPIGALOCATECHIN GALLATE], the result (in the assay on A-431 [1]; in assay [2]; in the assay with A-431 [7]; in the assay with A-431 [12]; in [18]) was inactive. Moreover, the “Ratio EC50” value with SK-BR-3 [3] and in the assay on A-431 [17] was 2 in each case. Further, the result (in [4]; in the assay with A-431 [5]; in the assay on A-431 [6]; in the assay on SK-BR-3 [11]; in assay [16]; in assay [22]) was Active. Also, the EC50 in assay [8] was determined as 195 µM; in [10] it was 100 µM; with A-431 [19], 266 µM; in the assay on A-431 [21], 38 µM. Also, the Activity in assay [9] is 30%; in the assay on SK-BR-3 [13] it was 40%; in the assay on A-431 [15], 30%; with A-431 [20], 80%. In [14], this compound registered an inhibition of 47%.
Regarding `O=c1c(-c2ccc(O)cc2)coc2cc(O)cc(O)c12` [GENISTEIN], the “Ratio EC50” value in the assay on SK-BR-3 [3] and with A-431 [17] was 2 each time. Moreover, the outcome (in the assay with A-431 [6]; in assay [9]; in the assay on SK-BR-3 [11]; in the assay on A-431 [15]; in the assay on SK-BR-3 [28]) was inactive. Moreover, the EC50 in assay [8] turned out to be 403 µM; in assay [10] it was 97 µM; with A-431 [19], 278 µM; in the assay on A-431 [21] it was 108 µM. In [23], the Activity stood at 50%. The result (in the assay on A-431 [24]; in assay [25]; in the assay with A-431 [26]; in the assay on A-431 [27]) was Active.
